Source: the supplement of paper PMC10307832

How the values were obtained:
Experiment in all cases: relative viability (nuclei count vs DMSO), 5 days (fraction); higher = more cells survive
Dactolisib + Navitoclax = compound: Cn1c(=O)n(-c2ccc(C(C)(C)C#N)cc2)c2c3cc(-c4cnc5ccccc5c4)ccc3ncc21 [Dactolisib] + CC1(C)CCC(c2ccc(Cl)cc2)=C(CN2CCN(c3ccc(C(=O)NS(=O)(=O)c4ccc(N[C@H](CCN5CCOCC5)CSc5ccccc5)c(S(=O)(=O)C(F)(F)F)c4)cc3)CC2)C1 [Navitoclax] (partner 0.5 µM)
Summary of the method: (§1)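 After 5 days of treatment, lung cancer cells in 1536-well plates were fixed and stained in a single step (final 0.05% Triton X-100, 1% formaldehyde, 1 ug/ml Hoechst) and their nuclei counted on 4× images. Treatment had been applied by pin tool the day after seeding as one drug alone or as a fixed anchor-drug dose with five library-drug doses (not always all listed) in √10 steps. Relative viability is the nuclei count of treated wells divided by that of vehicle wells, and values are medians of duplicate plates.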

Dactolisib + Linsitinib = compound: Cn1c(=O)n(-c2ccc(C(C)(C)C#N)cc2)c2c3cc(-c4cnc5ccccc5c4)ccc3ncc21 [Dactolisib] + C[C@]1(O)C[C@@H](c2nc(-c3ccc4ccc(-c5ccccc5)nc4c3)c3c(N)nccn32)C1 [Linsitinib] (partner 1 µM)
Summary of the method: as §1

AZ505 + OSI-027 = compound: C1CCC(CC1)N(CCNCCC2=C3C(=C(C=C2)O)NC(=O)CO3)C(=O)CCNCCC4=CC(=C(C=C4)Cl)Cl [AZ505] + COc1cccc2cc(-c3nc([C@H]4CC[C@H](C(=O)O)CC4)n4ncnc(N)c34)[nH]c12 [OSI-027] (partner 0.5 µM)
Summary of the method: as §1

AZ505 + Vorinostat = compound: C1CCC(CC1)N(CCNCCC2=C3C(=C(C=C2)O)NC(=O)CO3)C(=O)CCNCCC4=CC(=C(C=C4)Cl)Cl [AZ505] + O=C(CCCCCCC(=O)Nc1ccccc1)NO [Vorinostat] (partner 1 µM)
Summary of the method: as §1

Cell Line	relative viability (Dactolisib + Navitoclax; first compound 0.002 µM)	relative viability (Dactolisib + Navitoclax; first compound 0.006325 µM)	relative viability (Dactolisib + Navitoclax; first compound 0.02 µM)	relative viability (Dactolisib + Navitoclax; first compound 0.06325 µM)	relative viability (Dactolisib + Navitoclax; first compound 0.2 µM)	relative viability (Dactolisib + Linsitinib; first compound 0.002 µM)	relative viability (Dactolisib + Linsitinib; first compound 0.006325 µM)	relative viability (Dactolisib + Linsitinib; first compound 0.02 µM)	relative viability (Dactolisib + Linsitinib; first compound 0.06325 µM)	relative viability (Dactolisib + Linsitinib; first compound 0.2 µM)	relative viability (AZ505 + OSI-027; first compound 0.08 µM)	relative viability (AZ505 + OSI-027; first compound 0.253 µM)	relative viability (AZ505 + OSI-027; first compound 0.8 µM)	relative viability (AZ505 + OSI-027; first compound 2.53 µM)	relative viability (AZ505 + OSI-027; first compound 8 µM)	relative viability (AZ505 + Vorinostat; first compound 0.08 µM)	relative viability (AZ505 + Vorinostat; first compound 0.253 µM)	relative viability (AZ505 + Vorinostat; first compound 0.8 µM)	relative viability (AZ505 + Vorinostat; first compound 2.53 µM)	relative viability (AZ505 + Vorinostat; first compound 8 µM)
201T	1.18	1.22	1.14	1.17	0.943	1.03	1.08	0.979	0.862	0.73	0.688	0.721	0.813	0.91	0.764	0.877	0.998	0.903	0.907	0.976
A549	1.29	1.05	0.706	0.248	0.104	0.578	0.58	0.465	0.194	0.125	–	–	–	–	–	–	–	–	–	–
A-427	0.953	0.951	0.915	0.393	0.349	1.16	1.12	1.14	0.748	0.609	0.416	0.278	0.376	0.504	0.492	0.877	0.839	0.82	0.872	0.837
ABC-1	–	–	–	–	–	0.948	0.614	0.694	0.363	0.326	0.469	0.325	0.521	0.493	0.558	1.07	–	0.976	1.14	1.14
BEN	0.114	0.0698	0.0623	0.0651	0.0432	0.888	0.852	0.647	0.446	0.297	0.287	0.274	0.259	0.304	0.309	0.494	0.603	0.54	0.592	0.591
CAL-12T	1.38	1.17	0.681	0.264	0.25	0.911	0.72	0.753	0.291	0.334	0.545	0.548	0.667	0.645	0.834	0.577	0.971	0.692	0.849	1.01
COR-L23	1.14	0.934	0.644	0.238	0.188	1.01	0.8	0.448	0.17	0.139	0.494	0.65	0.588	0.486	0.656	0.415	0.312	0.364	0.407	0.377
COR-L 105	0.754	0.759	1.02	0.323	0.271	1.17	0.653	0.948	0.362	0.312	0.626	0.572	0.615	0.62	0.752	0.778	0.87	0.86	0.902	0.89
Calu-6	0.972	0.794	0.703	0.411	0.259	0.875	0.939	0.898	0.492	0.495	–	–	–	–	–	–	–	–	–	–
